Test results reported in ChEMBL document CHEMBL4706610, “Hydroxypyridinone-Based Iron Chelators with Broad-Ranging Biological Activities” (J Med Chem, 2020).

Tests used:
[1] = Volume of distribution in Sprague-Dawley rat plasma at 5 mg/kg, ip measured after 10 to 180 mins by HPLC-MS analysis; type: ADME, organism-based; conditions: in vivo, time 10-180 min
[2] = AUC (0 to infinity) in Sprague-Dawley rat plasma at 5 mg/kg, ip measured after 10 to 180 mins by HPLC-MS analysis; type: ADME, organism-based; design: route intraperitoneal, time lower 10 min, dose 5 mg/kg, time upper 180 min
[3] = Ratio of drug level in Sprague-Dawley rat brain to plasma at 5 mg/kg, ip measured after 10 to 180 mins by HPLC-MS analysis; type: ADME, organism-based; conditions: brain and plasma, time 10-180 min, read-out: BPR
[4] = molecular target: Amyloid-beta precursor protein (Homo sapiens, UniProt P05067); experiment: Inhibition of self-induced amyloid beta (1 to 42) (unknown origin) aggregation incubated for 24 hrs by ThT fluorescence assay
[5] = Cmax in Sprague-Dawley rat brain at 5 mg/kg, ip measured up to 30 mins by HPLC-MS analysis; type: ADME, organism-based; design: route intraperitoneal, dose 5 mg/kg, time <=30
[6] = Half life in Sprague-Dawley rat plasma at 5 mg/kg, ip measured after 10 to 180 mins by HPLC-MS analysis; type: ADME, organism-based; conditions: time 10-180 min

Sequence of Amyloid-beta precursor protein (P05067 whole entry): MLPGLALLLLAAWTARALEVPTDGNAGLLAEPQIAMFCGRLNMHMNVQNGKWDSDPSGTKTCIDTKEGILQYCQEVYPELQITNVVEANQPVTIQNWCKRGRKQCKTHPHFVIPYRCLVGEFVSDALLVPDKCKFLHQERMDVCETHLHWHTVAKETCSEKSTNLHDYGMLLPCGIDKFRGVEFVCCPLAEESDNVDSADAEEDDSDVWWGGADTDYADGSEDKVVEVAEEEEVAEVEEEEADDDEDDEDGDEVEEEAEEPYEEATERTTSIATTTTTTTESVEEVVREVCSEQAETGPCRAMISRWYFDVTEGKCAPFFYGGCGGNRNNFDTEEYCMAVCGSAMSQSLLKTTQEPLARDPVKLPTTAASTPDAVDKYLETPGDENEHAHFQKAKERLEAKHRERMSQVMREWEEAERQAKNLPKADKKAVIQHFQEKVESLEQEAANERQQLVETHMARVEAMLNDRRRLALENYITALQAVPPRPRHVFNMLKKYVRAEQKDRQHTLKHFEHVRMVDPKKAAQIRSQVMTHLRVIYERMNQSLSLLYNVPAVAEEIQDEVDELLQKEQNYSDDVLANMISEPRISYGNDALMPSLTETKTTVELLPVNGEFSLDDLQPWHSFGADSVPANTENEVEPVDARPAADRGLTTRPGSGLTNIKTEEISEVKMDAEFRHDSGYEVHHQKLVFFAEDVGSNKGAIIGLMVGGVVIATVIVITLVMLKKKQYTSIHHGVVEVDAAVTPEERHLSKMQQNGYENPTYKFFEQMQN

In the case of C#CCN(C)CCCn1ccc(=O)c(O)c1C, the Vd [1] is reported as 18.7 L/kg, the AUC(0-inf) [2] is reported as 636 ng·h/mL and the Kp [3] is reported as 0.69. The IC50 [4] was 2.85 µM, the Cmax [5] was 207 ng/mL and the half-life [6] was 1.6 h.
